A value given as a limit tells only on which side of the number the result lay.

Test [1] has as its target T1, CRFR1 (Homo sapiens, UniProt P34998).
T1 construct: expressed in transfected cells
T1 sequence (P34998 24-415): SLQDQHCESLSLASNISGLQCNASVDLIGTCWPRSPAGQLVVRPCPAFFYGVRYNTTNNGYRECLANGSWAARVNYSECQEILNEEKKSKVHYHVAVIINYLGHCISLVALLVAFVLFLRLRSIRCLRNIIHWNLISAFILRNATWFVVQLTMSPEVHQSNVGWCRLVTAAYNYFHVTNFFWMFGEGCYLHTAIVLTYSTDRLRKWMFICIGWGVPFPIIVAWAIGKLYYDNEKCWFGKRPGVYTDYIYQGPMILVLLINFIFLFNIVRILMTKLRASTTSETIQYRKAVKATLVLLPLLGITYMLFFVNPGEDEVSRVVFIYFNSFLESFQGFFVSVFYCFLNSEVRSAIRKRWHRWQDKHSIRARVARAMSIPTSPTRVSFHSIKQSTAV
Briefly: Competitive displacement binding assay, cloned hCRFR1 expressed in CHO cells. The text has this: A candidate CRFR2 ligand is also easily evaluated in a binding assay using known CRF receptors, such as that described in Perrin, M., et al., Endocrinology, 118, 1171–1179 (1986). CRF receptors and the details of binding assays are discussed later in this specification. […] One such representative binding assay utilizing CRF-R1 receptor is described in Chen, et al., P.N.A.S., 90, 8967–8971 (October 1993).
(§1) CRF receptors have now been cloned and are disclosed in the aforementioned Chen et al. article, in Perrin, M., et al., P.N.A.S, 92, 2969–2973 (March 1995), and in Lovenberg, T., et al., P.N.A.S., 92, 836–840 (January 1995). Binding affinity is a term used to refer to the strength of interaction between ligand and receptor. […] Ki (inhibitory binding affinity constant) is determined using a “standard” or “tracer” radioactive ligand and thus measures the displacement of the tracer from the receptor or binding protein; it is most properly expressed with reference to such tracer. However, so long as these assays are carefully performed under specific conditions with relatively low concentrations of receptor or the like, the calculated Ki will be substantially the same as its dissociation constant KD. […] It is particularly efficient to test for Ki because only a single tracer need be labelled, e.g. radioiodinated. […] Those reported hereinafter are derived using radioactively labeled [Tyr Glu^1, Nle^17]-Svg as a radioligand.
(§2) Binding assays with cells expressing human CRFR1 are carried out as described in the Chen et al. P.N.A.S., supra. The affinities of test peptides for CRFR1 and CRFR2b stably expressed in CHO cells were determined by competitive displacement of ^125I-(Nle^21, Tyr^32) ovine CRF (for CRFR1) or of [^125I-Tyr^o-]Ucn (for CRFR2b) as described.

Another test has as its target T2, human CRFR2b (Homo sapiens, UniProt Q13324).
T2 construct: expressed in transfected cells
T2 sequence (Q13324 1-438 isoform Q13324-2): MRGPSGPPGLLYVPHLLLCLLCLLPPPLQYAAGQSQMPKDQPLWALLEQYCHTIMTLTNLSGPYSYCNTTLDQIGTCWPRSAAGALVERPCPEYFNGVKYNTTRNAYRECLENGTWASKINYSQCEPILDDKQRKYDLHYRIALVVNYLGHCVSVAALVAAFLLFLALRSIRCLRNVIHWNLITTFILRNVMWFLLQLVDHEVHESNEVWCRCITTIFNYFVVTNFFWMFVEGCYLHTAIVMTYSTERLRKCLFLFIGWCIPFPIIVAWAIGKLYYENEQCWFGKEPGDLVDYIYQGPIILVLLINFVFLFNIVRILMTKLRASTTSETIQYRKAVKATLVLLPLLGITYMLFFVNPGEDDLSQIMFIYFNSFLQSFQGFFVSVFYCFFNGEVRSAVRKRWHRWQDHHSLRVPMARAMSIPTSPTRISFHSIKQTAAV
Kind of test: Competitive displacement binding assay, stably transfected CHO cells expressing human CRFR2b. The procedure:
as §1, §2

For test [2], the target named is T1, CRFR1. Kind of test: cAMP accumulation in CHO cells stably transfected with CRFR1 and treated with CRF. The class given is cell-based.
Description: (§3) In addition to inhibiting CRF receptor binding, a candidate's CRF receptor antagonist activity may be established by the ability of the compound to antagonize an activity associated with CRF. For example, CRF is known to stimulate various biochemical processes, including adenylate cyclase activity. Therefore, compounds may be evaluated as CRF antagonists by their ability to antagonize CRF-stimulated adenylate cyclase activity by, for example, measuring cAMP levels. The inhibition of CRF-stimulated adenylate cyclase activity, determined by the assay described by G. Battaglia et al., Synapse 1:572 (1987), provides an assay for determining a compound's ability to antagonize CRF activity. Accordingly, CRF receptor antagonist activity may be determined by assay techniques which generally include an initial binding assay followed by such a cAMP screening protocol.
as §2

The target in another test is T3, CRFR2 (Homo sapiens, UniProt Q13324).
T3 construct: expressed in transfected cells
T3 sequence (Q13324 1-438 isoform Q13324-2): T2 sequence (Q13324 1-438 isoform Q13324-2)
Briefly: cAMP accumulation in CHO cells stably transfected with CRFR2 and treated with CRF. As to conditions: CHO cells stably transfected with CRFR2, treated with CRF. The class given is cell-based.
Description: as §3, with “protocol. […]” for “protocol.”

For another test, the system named is CRF receptors. Briefly: Intrinsic CRF activity of the antagonist. As to conditions: when administered at the highest dosage.

At CRFR1 [1], `CCCC[C@H](NC(=O)[C@H](CCCCN)NC(=O)[C@H](CCCNC(=N)N)NC(=O)[C@H](CC(C)C)NC(=O)[C@](C)(CC(C)C)NC(=O)[C@H](Cc1c[nH]cn1)NC(=O)[C@@H](Cc1ccccc1)NC(C)=O)C(=O)N[C@H](C(=O)N[C@@H](CCC(=O)O)C(=O)N[C@H](C(=O)N[C@@H](CCC(=O)O)C(=O)N[C@@H](CCCCN)C(=O)N[C@@H](CCC(N)=O)C(=O)N[C@@H](CCC(=O)O)C(=O)N[C@@H](CCCCN)C(=O)N[C@@H](CCC(=O)O)C(=O)N[C@@H](CCCCN)C(=O)N[C@@H](CCC(N)=O)C(=O)N[C@@H](CCC(N)=O)C(=O)N[C@@H](C)C(=O)N[C@H]1CCC(=O)NCCCC[C@@H](C(=O)N[C@@H](CC(C)C)C(=O)N[C@@H](CC(C)C)C(=O)N[C@@H](CC(C)C)C(=O)N[C@@H](CC(=O)O)C(=O)N[C@@](C)(CC(C)C)C(=O)N[C@H](C(N)=O)[C@@H](C)CC)NC(=O)[C@H](CC(N)=O)NC(=O)[C@H](CC(N)=O)NC1=O)[C@@H](C)CC)[C@@H](C)CC` [Example 1 cyclic peptide, (cyclo 31–34)[Ac-D-Phe^11, His^12, CML ^13,39, Nle^17, Glu^31, Lys^34]-sauvagine(11–40)] displayed an IC50 above 500 nM and a Ki of around 1000 nM. In addition, the Ki on human CRFR2b was found to be 1.1 nM. Moreover, the “antagonism of CRF activity with respect to CRFR1 (cAMP accumulation)” value at CRFR1 [2] is “little or no effect”. For the same molecule, on CRFR2, the “antagonism of CRF activity with respect to CRFR2 (cAMP accumulation)” value is recorded as “effectively antagonize CRF activity”. The “intrinsic CRF activity” value with CRF receptors was “only minor intrinsic CRF activity”.

The values are drawn from patent US7141546B1, “CRFR2 selective ligands” (priority 2001, dated 2006).
